# Laboratory results published in US20060281771A1, “SYNERGISTIC MODULATION OF FLT3 KINASE USING AMINOQUINOLINE AND AMINOQUINAZOLINE KINASE MODULATORS” (priority 2005, published 2006).
# pIC50: −log10 of the molar value.
# Target: T1, wild-type FLT3 phosphorylation in Baf3 FLT3 cells (Homo sapiens, UniProt P36888)
# T1 construct: host or cells: Baf3 (murine B cell lymphoma line)
# T1 sequence (P36888 27-993): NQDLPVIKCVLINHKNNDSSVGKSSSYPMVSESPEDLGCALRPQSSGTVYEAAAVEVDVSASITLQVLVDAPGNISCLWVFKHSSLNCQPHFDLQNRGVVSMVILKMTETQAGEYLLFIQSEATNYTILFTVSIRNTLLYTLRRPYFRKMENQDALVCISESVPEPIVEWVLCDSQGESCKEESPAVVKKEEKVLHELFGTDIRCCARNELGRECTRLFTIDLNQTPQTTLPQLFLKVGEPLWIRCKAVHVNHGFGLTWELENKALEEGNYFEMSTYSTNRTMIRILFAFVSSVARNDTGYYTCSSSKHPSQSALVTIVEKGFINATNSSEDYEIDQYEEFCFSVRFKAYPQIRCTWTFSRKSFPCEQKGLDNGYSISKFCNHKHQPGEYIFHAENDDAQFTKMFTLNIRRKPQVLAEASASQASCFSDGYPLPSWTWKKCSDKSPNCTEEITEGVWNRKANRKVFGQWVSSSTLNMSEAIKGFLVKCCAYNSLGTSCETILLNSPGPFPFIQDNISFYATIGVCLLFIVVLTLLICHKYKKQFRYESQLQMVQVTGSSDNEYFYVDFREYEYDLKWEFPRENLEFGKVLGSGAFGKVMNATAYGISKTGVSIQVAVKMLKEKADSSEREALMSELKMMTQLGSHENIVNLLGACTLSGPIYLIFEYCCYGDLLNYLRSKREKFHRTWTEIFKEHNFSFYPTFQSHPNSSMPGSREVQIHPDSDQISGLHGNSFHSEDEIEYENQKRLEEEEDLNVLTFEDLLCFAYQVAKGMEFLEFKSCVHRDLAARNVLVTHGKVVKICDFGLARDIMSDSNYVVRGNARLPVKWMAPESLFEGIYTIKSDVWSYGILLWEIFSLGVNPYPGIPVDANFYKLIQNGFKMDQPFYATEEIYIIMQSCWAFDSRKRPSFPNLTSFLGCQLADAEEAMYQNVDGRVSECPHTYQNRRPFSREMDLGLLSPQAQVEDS
# Test: Cell-based FLT3 receptor ELISA
# Conditions: FLT ligand-induced FLT3 phosphorylation
# In short: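 Baf3 cells stably expressing wild-type human FLT3 were starved 16 h in 0.5% serum with 0.01 ng/mL IL-3, given compound for 1 h, then stimulated with 100 ng/mL FLT ligand for 10 min at 37 °C. Lysates were captured on anti-FLT3 plates and probed with HRP anti-phosphotyrosine (4G10), read by chemiluminescence. IC50 came from sigmoidal variable-slope fits of triplicates.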
row,pIC50,Compound
1,7.34,"COc1cc2ncnc(N3CCC(CC(=O)Nc4ccc(C(C)C)cc4)C3)c2cc1OC (stereo not drawn) [Compound 6, 2-[11-(6,7-Dimethoxy-quinazolin-4-yl)-pyrrolidin-3-yl]-N-(4-isopropyl-phenyl)-acetamide]"
2,< 5.52,"COc1cc2ncnc(N3CCC(NC(=O)Cc4ccc(C(C)C)cc4)C3)c2cc1OC (stereo not drawn) [Compound 35, N-[1-(6,7-Dimethoxy-quinazolin-4-yl)-pyrrolidin-3-yl]-2-(4-isopropyl-phenyl)-acetamide]"
3,8.40,"CC(C)c1ccc(NC(=O)OC2CCN(c3ncnc4ccc(C#CCO)cc34)C2)cc1 (stereo not drawn) [Compound 14, (4-Isopropyl-phenyl)-carbamic acid 1-[6-(3-hydroxy-prop-1-ynyl)-quinazolin-4-yl]-pyrrolidin-3-yl ester]"
